system: TEAD-dependent transcription; test: TEAD-dependent transcription cell-based luciferase reporter assay (MSTO-211H+12XGTIIC); design: species or system human; conditions: Homo sapiens, MSTO-211H, 24 h, MSTO-211H+12XGTIIC cell line, 24 hours compound incubation, luminescence normalized to cell viability fluorescence signal; read-out: MSTO-211H GMean IC50 (uM) Cell Assay Reporter Cell Variant: TEAD
Text: Determine Inhibitor Activity Against TEAD-Dependent Transcription in a Cell-Based Reporter Assay
The human mesothelioma cell line MSTO-211H was stably transfected with a pGL4.21 plasmid containing a synthetic promoter with 12 copies of the GTIIC TEAD response element that drives the expression of a luciferase reporter gene i using Lipofectamine transfection reagent (Thermo Fisher). Transfected cells were selected using puromycin and single cell clones expressing this construct (referred to as MSTO-211H+12XGTIIC) were generated by limiting dilution. MSTO-211H cells was characterized by genetic alterations in key components of the Hippo pathway^2, resulting in up-regulation of YAP/TEAD-mediated transcription. […] To evaluate TEAD inhibitors, the MSTO-211H+12XGTIIC cell line was seeded in a 96-well plate in 50 μL of culture media at 1×10^4 cells per well and incubated at 37° C. overnight. Serial dilutions of compounds (in total volume of 50 μL of culture media) were added to the cells and incubated at 37° C. for 24 hours. Each plate included cells treated with DMSO as high controls and cells treated with 20 μM of the reference compound K-975 (a known TEAD inhibitor)^3 as low controls. Cell viability was assayed by the addition of 25 μL of CellTiter-Fluor reagent (Promega) followed by a 30-minute incubation at 37° C. and quantification of the fluorescence signal (Ex400/Em505). Subsequently, luciferase expression was assayed by the addition of 25 μL of ONE-Glo reagent (Promega) followed by a 10-minute incubation at room temperature and quantification of the luminescence signal. The luminescence signal was normalized to the fluorescence signal to correct for any loss in cell viability over the 24-hour compound incubation period. The percentage of inhibition of normalized luminescence signal, indicative of compound-mediated inhibition of TEAD-dependent transcription, at individual compound concentrations relative to high and low controls was calculated. The data were analyzed by using nonlinear regression to generate IC50 values for individual compounds.

Row | SMILES | IC50
1 | CS(=O)(=O)c1nc(C(=O)N2CCc3c(cccc3Nc3ccc(C(F)(F)F)nc3)C2)c[nH]1 [O-0009, (2-(methylsulfonyl)-1H-imidazol-4-yl)(5-((6-(trifluoromethyl)pyridin-3-yl)amino)-3,4-dihydroisoquinolin-2(1H)-yl)methanone] | 10 to 100 µM
2 | CCCS(=O)(=O)c1nc(C(=O)N2CCc3c(cccc3Nc3ccc(C(F)(F)F)c(F)c3)C2)c[nH]1 [O-0026, (5-((3-fluoro-4-(trifluoromethyl)phenyl)amino)-3,4-dihydroisoquinolin-2(1H)-yl)(2-(propylsulfonyl)-1H-imidazol-4-yl)methanone] | 0.001 to 10 µM
3 | Cn1cc(C(=O)N2CCc3c(cccc3Nc3ccc(C(F)(F)F)cn3)C2)nc1S(C)(=O)=O [O-0005, (1-methyl-2-(methylsulfonyl)-1H-imidazol-4-yl)(5-((5-(trifluoromethyl)pyridin-2-yl)amino)-3,4-dihydroisoquinolin-2(1H)-yl)methanone] | 0.001 to 10 µM
4 | Cn1c(C(=O)N2CCc3c(cccc3Nc3ccc(C(F)(F)F)cc3)C2)cnc1S(C)(=O)=O [O-0008, (1-methyl-2-(methylsulfonyl)-1H-imidazol-5-yl)(5-((4-(trifluoromethyl)phenyl)amino)-3,4-dihydroisoquinolin-2(1H)-yl)methanone] | 0.001 to 10 µM
5 | CS(=O)(=O)c1nc(C(=O)N2CCc3cc(Oc4ccc(C(F)(F)F)cc4F)ccc3C2)c[nH]1 [O-0075, (6-(2-fluoro-4-(trifluoromethyl)phenoxy)-3,4-dihydroisoquinolin-2(1H)-yl)(2-(methylsulfonyl)-1H-imidazol-4-yl)methanone] | 0.001 to 10 µM
6 | Cn1c(C(=O)N2CCc3c(cccc3Nc3ccc(C(F)(F)F)cn3)C2)cnc1S(C)(=O)=O [O-0006, (1-methyl-2-(methylsulfonyl)-1H-imidazol-5-yl)(5-((5-(trifluoromethyl)pyridin-2-yl)amino)-3,4-dihydroisoquinolin-2(1H)-yl)methanone] | 0.001 to 10 µM
7 | CCCS(=O)(=O)c1nc(C(=O)N2CCc3c(cccc3Nc3ccc(C(F)(F)F)cc3)C2)c[nH]1 [O-0020, (2-(propylsulfonyl)-1H-imidazol-4-yl)(5-((4-(trifluoromethyl)phenyl)amino)-3,4-dihydroisoquinolin-2(1H)-yl)methanone] | 0.001 to 10 µM
8 | CCCS(=O)(=O)c1nc(C(=O)N2CCc3cc(Oc4ccc(C(F)(F)F)cc4)ccc3C2)c[nH]1 [O-0081, (2-(propylsulfonyl)-1H-imidazol-4-yl)(6-(4-(trifluoromethyl)phenoxy)-3,4-dihydroisoquinolin-2(1H)-yl)methanone] | 0.001 to 10 µM
9 | CS(=O)(=O)c1nc(C(=O)N2CCc3c(cccc3Oc3ccc(C(F)(F)F)cc3F)C2)c[nH]1 [O-0118, (5-(2-fluoro-4-(trifluoromethyl)phenoxy)-3,4-dihydroisoquinolin-2(1H)-yl)(2-(methylsulfonyl)-1H-imidazol-4-yl)methanone] | 0.001 to 10 µM
10 | CCS(=O)(=O)c1nc(C(=O)N2CCc3cc(Oc4ccc(C(F)(F)F)cc4)ccc3C2)c[nH]1 [O-0079, (2-(ethylsulfonyl)-1H-imidazol-4-yl)(6-(4-(trifluoromethyl)phenoxy)-3,4-dihydroisoquinolin-2(1H)-yl)methanone] | 0.001 to 10 µM
11 | CS(=O)(=O)c1nc(C(=O)N2CCc3cc(Oc4ccc(C(F)(F)F)cc4)ccc3C2)c[nH]1 [O-0073, (2-(methylsulfonyl)-1H-imidazol-4-yl)(6-(4-(trifluoromethyl)phenoxy)-3,4-dihydroisoquinolin-2(1H)-yl)methanone] | 10 to 100 µM
12 | CCS(=O)(=O)c1nc(C(=O)N2CCc3c(ncnc3Oc3ccc(C(F)(F)F)cc3)C2)c[nH]1 [O-0130, (2-(ethylsulfonyl)-1H-imidazol-4-yl)(4-(4-(trifluoromethyl)phenoxy)-5,8-dihydropyrido[3,4-d]pyrimidin-7(6H)-yl)methanone] | 10 to 100 µM
13 | CCS(=O)(=O)c1nc(C(=O)N2CCc3c(cccc3Nc3ccc(C(F)(F)F)c(F)c3)C2)c[nH]1 [O-0025, (2-(ethylsulfonyl)-1H-imidazol-4-yl)(5-((3-fluoro-4-(trifluoromethyl)phenyl)amino)-3,4-dihydroisoquinolin-2(1H)-yl)methanone] | > 100 µM
14 | CCCS(=O)(=O)c1nc(C(=O)N2CCc3c(cccc3Oc3ccc(C(F)(F)F)cc3)C2)c[nH]1 [O-0019, (2-(propylsulfonyl)-1H-imidazol-4-yl)(5-(4-(trifluoromethyl)phenoxy)-3,4-dihydroisoquinolin-2(1H)-yl)methanone] | 0.001 to 10 µM
15 | O=C(c1c[nH]c(S(=O)(=O)C2CCC2)n1)N1CCc2c(cccc2Nc2ccc(C(F)(F)F)cc2)C1 [O-0126, (2-(cyclobutylsulfonyl)-1H-imidazol-4-yl)(5-((4-(trifluoromethyl)phenyl)amino)-3,4-dihydroisoquinolin-2(1H)-yl)methanone] | 0.001 to 10 µM
16 | CC(C)S(=O)(=O)c1nc(C(=O)N2CCc3c(cccc3Nc3ccc(C(F)(F)F)cc3)C2)c[nH]1 [O-0022, (2-(isopropylsulfonyl)-1H-imidazol-4-yl)(5-((4-(trifluoromethyl)phenyl)amino)-3,4-dihydroisoquinolin-2(1H)-yl)methanone] | 0.001 to 10 µM
17 | CS(=O)(=O)c1nc(C(=O)N2CCc3c(cccc3Nc3ccc(C(F)(F)F)cc3F)C2)c[nH]1 [O-0010, (5-((2-fluoro-4-(trifluoromethyl)phenyl)amino)-3,4-dihydroisoquinolin-2(1H)-yl)(2-(methylsulfonyl)-1H-imidazol-4-yl)methanone] | 0.001 to 10 µM
18 | O=C(c1c[nH]c(S(=O)(=O)C2CCC2)n1)N1CCc2c(cccc2Oc2ccc(C(F)(F)F)cc2)C1 [O-0125, (2-(cyclobutylsulfonyl)-1H-imidazol-4-yl)(5-(4-(trifluoromethyl)phenoxy)-3,4-dihydroisoquinolin-2(1H)-yl)methanone] | 0.001 to 10 µM
19 | CCS(=O)(=O)c1nc(C(=O)N2CCc3c(ncnc3Oc3ccc(C(F)(F)F)c(F)c3)C2)c[nH]1 [O-0113, (2-(ethylsulfonyl)-1H-imidazol-4-yl)(4-(3-fluoro-4-(trifluoromethyl)phenoxy)-5,8-dihydropyrido[3,4-d]pyrimidin-7(6H)-yl)methanone] | 0.001 to 10 µM
20 | Cn1cc(C(=O)N2CCc3c(cccc3Nc3ccc(C(F)(F)F)cc3)C2)nc1S(C)(=O)=O [O-0007, (1-methyl-2-(methylsulfonyl)-1H-imidazol-4-yl)(5-((4-(trifluoromethyl)phenyl)amino)-3,4-dihydroisoquinolin-2(1H)-yl)methanone] | 0.001 to 10 µM
21 | CS(=O)(=O)c1nc(C(=O)N2CCc3c(cccc3Oc3ccc(C(F)(F)F)c(F)c3)C2)c[nH]1 [O-0114, (5-(3-fluoro-4-(trifluoromethyl)phenoxy)-3,4-dihydroisoquinolin-2(1H)-yl)(2-(methylsulfonyl)-1H-imidazol-4-yl)methanone] | 0.001 to 10 µM
22 | CS(=O)(=O)c1nc(C(=O)N2CCc3c(cccc3OC3CCC(F)(F)CC3)C2)c[nH]1 [O-0112, (5-((4,4-difluorocyclohexyl)oxy)-3,4-dihydroisoquinolin-2(1H)-yl)(2-(methylsulfonyl)-1H-imidazol-4-yl)methanone] | 0.001 to 10 µM

same assay, conditions: MSTO-211H+12XGTIIC cell line, 24 hours compound incubation, luminescence normalized to cell viability fluorescence signal; read-out: MSTO-211H GMean IC50 (uM) Cell Assay Reporter Cell Variant: TEAD

Row | SMILES | IC50
23 | CCS(=O)(=O)c1nc(C(=O)N2CCc3c(ncnc3Oc3ccc(C(F)(F)F)cc3F)C2)c[nH]1 [O-0116, (2-(ethylsulfonyl)-1H-imidazol-4-yl)(4-(2-fluoro-4-(trifluoromethyl)phenoxy)-5,8-dihydropyrido[3,4-d]pyrimidin-7(6H)-yl)methanone] | 0.001 to 10 µM
24 | CS(=O)(=O)c1nc(C(=O)N2CCc3c(ncnc3Oc3ccc(C(F)(F)F)c(F)c3)C2)c[nH]1 [O-0128, (4-(3-fluoro-4-(trifluoromethyl)phenoxy)-5,8-dihydropyrido[3,4-d]pyrimidin-7(6H)-yl)(2-(methylsulfonyl)-1H-imidazol-4-yl)methanone] | 10 to 100 µM
25 | CS(=O)(=O)c1nc(C(=O)N2CCc3ccc(Nc4ccc(C(F)(F)F)c(F)c4)cc3C2)c[nH]1 [O-0121, (7-((3-fluoro-4-(trifluoromethyl)phenyl)amino)-3,4-dihydroisoquinolin-2(1H)-yl)(2-(methylsulfonyl)-1H-imidazol-4-yl)methanone] | 0.001 to 10 µM
26 | CS(=O)(=O)c1nc(C(=O)N2CCc3ccc(Nc4ccc(C(F)(F)F)c(F)c4)cc3C2)c[nH]1 [O-0018, (7-((3-fluoro-4-(trifluoromethyl)phenyl)amino)-3,4-dihydroisoquinolin-2(1H)-yl)(2-(methylsulfonyl)-1H-imidazol-4-yl)methanone] | 10 to 100 µM
27 | CS(=O)(=O)c1nc(C(=O)N2CCc3c(ncnc3Oc3ccc(C(F)(F)F)cc3)C2)c[nH]1 [O-0131, (2-(methylsulfonyl)-1H-imidazol-4-yl)(4-(4-(trifluoromethyl)phenoxy)-5,8-dihydropyrido[3,4-d]pyrimidin-7(6H)-yl)methanone] | 10 to 100 µM

Reference: patent publication US20250376458A1, “COMPOUNDS AND METHODS FOR YAP/TEAD MODULATION AND INDICATIONS THEREFOR” (OPNA BIO SA, priority 2023, published 2025)
